Test results from EP4763845A1, “CYANO AROMATIC RING DERIVATIVE AND PHARMACEUTICAL USE THEREOF” (Haisco Pharmaceutical Group Co., Ltd., priority 2023, dated 2025).
Where two headings read alike, the source gives them in different places.

How the values were obtained:
AR protein = target: T1, AR protein (Homo sapiens, UniProt P10275); experiment: Detection of AR degradation in VCaP cells (automated western blot); assay type: cell-based; conditions: degradation of AR protein in VCaP cells, 24 hours incubation; read-out: DC50
T1 construct: VCap is a human prostate cancer cell line purchased from ATCC; host or cells: VCaP human prostate cancer cells
T1 sequence (P10275 1-920): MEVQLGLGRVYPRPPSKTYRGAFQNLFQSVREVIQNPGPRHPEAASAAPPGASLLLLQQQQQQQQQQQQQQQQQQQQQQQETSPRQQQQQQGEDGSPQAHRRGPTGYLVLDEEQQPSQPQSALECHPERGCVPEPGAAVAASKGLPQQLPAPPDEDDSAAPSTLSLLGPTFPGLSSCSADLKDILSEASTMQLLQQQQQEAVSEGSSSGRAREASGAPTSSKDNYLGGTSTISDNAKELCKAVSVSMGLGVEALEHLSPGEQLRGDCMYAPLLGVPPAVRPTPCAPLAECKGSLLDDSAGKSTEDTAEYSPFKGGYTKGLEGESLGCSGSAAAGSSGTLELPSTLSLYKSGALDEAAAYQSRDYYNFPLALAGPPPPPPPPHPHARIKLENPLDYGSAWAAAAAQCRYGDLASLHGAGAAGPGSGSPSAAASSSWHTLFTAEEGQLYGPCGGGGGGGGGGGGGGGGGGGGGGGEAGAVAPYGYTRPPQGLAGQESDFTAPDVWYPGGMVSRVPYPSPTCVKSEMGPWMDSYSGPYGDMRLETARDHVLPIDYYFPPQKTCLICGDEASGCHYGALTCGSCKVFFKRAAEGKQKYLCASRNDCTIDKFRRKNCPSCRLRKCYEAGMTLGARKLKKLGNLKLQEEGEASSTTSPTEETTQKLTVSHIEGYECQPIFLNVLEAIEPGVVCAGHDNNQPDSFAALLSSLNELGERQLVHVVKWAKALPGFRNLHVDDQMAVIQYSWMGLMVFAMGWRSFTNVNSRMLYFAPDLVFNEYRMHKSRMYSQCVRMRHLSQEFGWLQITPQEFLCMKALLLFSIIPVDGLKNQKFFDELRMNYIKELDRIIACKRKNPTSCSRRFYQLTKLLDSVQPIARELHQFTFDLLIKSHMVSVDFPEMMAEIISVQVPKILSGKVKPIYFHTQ
Protocol: VCap is a human prostate cancer cell line purchased from ATCC and cultured under the following conditions: DMEM + 10% FBS + 1% penicillin-streptomycin solution. The cells were cultured in a 37°C, 5% CO2 incubator. The cells were seeded in a 6-well plate, with 5 × 10^5 cells/well. After seeding, compounds at various concentrations were added, and the plate was incubated for 24 hours in the 37°C, 5% CO2 incubator. Following incubation, the cells were harvested and RIPA lysis buffer (beyotime, Cat. P0013B) was added. The cells were lysed on ice for 15 minutes and centrifuged at 12,000 rpm at 4°C for 10 minutes. The supernatant protein samples were collected and the protein was quantified using the BCA kit (Beyotime, Cat. P0009). Then the protein was diluted to 0.25 mg/mL. The expressions of AR (CST, Cat.5153S) and the internal reference β-actin (CST, Cat. 3700S) were detected using a fully automated western blot quantitative analyser (Proteinsimple). Using the "Compass for SW" software, the relative peak area of AR was calculated when the internal reference area was 10,000. The proportion of AR relative to the solvent control group at various drug concentrations was calculated according to Equation (1), where ARtreat represents the relative peak area of the compound-treated group, and ARsolvent represents the relative peak area of the solvent control group. The processed data obtained from Equation (1) were analysed using GraphPad Prism 8.3.0 software, and the DC50 value was calculated using a four-parameter nonlinear regression model. The degradation rate at a specified concentration was determined as 100-AR%. AR% = ARtreat/ ARsolvent × 100% [formula]

[1] = Pharmacokinetic test in rats; assay type: in vivo, SD rats; conditions: i.g. (5 mg/kg); for AUC(0-t): rat, po
Protocol: (§1) Experimental objective: In this experiment, a single dose of the test compound was administered to SD rats via intravenous administration and intragastric gavage, and the concentration of the test compound in plasma of the rats was measured to evaluate the pharmacokinetic profile of the test compound in the rats.
Experimental animals: Male SD rats, 200-220 g, 6 rats/compound, purchased from Chengdu Ddossy Experimental Animals Co., Ltd.
(§2) Experimental method: On the day of the experiment, 6 SD rats were randomly grouped according to their body weights. The animals were fasted with water available for 12 to 14 h one day before the administration, and were fed 4 h after the administration. Table 3 Administration information of pharmacokinetic test in rats
Sampling: Before and after the administration, 0.1 mL of blood was taken from the orbits under isoflurane anaesthesia, and placed in an EDTAK2 centrifuge tube. Centrifugation was carried out at 5000 rpm at 4°C for 10 min, and the plasma was collected.
The plasma collection time points for IV&PO groups were 0, 5 min, 15 min, 30 min, 1 h, 2 h, 4 h, 7 h, 24 h, and 48 h.
Before analysis and detection, all samples were stored at -60°C. The samples were analysed quantitatively by LC-MS/MS. Table 4 Pharmacokinetic parameters of compounds of the present invention in plasma of rats

VCaP cells = experiment: VCaP cell proliferation inhibition experiment (CellTiter-Glo); assay type: cell-based; conditions: Homo sapiens, 168 h
Protocol: After centrifugation and resuspension, viable cell counting was performed using a Vi-Cell XR cell counter. […] Then, 180 µl of the cell suspension was added per well to a 96-well cell culture plate at a cell density of 7,500 cells/well. At the time of seeding, T0 wells were also prepared. The following day, R1881 at a final concentration of 0.1 nM and compounds at various concentrations were added. The plate was placed back into the incubator and cultured for an additional 7 days. At the time of compound addition, the T0 plate was measured using the CellTiter-Glo (CTG) kit (Promega, Cat. No. G7572) and recorded as RLU0. Following incubation, 75 µl of pre-thawed and room temperature-equilibrated CellTiter-Glo solution was added to each well. […] The results were processed according to Equation (2). […] Growth% = (RLUcompound−RLU0)/(RLUcontrol−RLU0) × 100% [formula]

hERG potassium channel = target: T2, hERG potassium channel (Homo sapiens, UniProt Q12809); experiment: hERG potassium ion channel test (manual patch-clamp, CHO cells); assay type: cell-based; conditions: inhibitory activity against hERG potassium channel current, CHO cells, whole cell patch-clamp, read-out: IC50
T2 construct: expressed in transfected cells; host or cells: CHO cells stably expressing hERG
T2 sequence (Q12809 whole entry): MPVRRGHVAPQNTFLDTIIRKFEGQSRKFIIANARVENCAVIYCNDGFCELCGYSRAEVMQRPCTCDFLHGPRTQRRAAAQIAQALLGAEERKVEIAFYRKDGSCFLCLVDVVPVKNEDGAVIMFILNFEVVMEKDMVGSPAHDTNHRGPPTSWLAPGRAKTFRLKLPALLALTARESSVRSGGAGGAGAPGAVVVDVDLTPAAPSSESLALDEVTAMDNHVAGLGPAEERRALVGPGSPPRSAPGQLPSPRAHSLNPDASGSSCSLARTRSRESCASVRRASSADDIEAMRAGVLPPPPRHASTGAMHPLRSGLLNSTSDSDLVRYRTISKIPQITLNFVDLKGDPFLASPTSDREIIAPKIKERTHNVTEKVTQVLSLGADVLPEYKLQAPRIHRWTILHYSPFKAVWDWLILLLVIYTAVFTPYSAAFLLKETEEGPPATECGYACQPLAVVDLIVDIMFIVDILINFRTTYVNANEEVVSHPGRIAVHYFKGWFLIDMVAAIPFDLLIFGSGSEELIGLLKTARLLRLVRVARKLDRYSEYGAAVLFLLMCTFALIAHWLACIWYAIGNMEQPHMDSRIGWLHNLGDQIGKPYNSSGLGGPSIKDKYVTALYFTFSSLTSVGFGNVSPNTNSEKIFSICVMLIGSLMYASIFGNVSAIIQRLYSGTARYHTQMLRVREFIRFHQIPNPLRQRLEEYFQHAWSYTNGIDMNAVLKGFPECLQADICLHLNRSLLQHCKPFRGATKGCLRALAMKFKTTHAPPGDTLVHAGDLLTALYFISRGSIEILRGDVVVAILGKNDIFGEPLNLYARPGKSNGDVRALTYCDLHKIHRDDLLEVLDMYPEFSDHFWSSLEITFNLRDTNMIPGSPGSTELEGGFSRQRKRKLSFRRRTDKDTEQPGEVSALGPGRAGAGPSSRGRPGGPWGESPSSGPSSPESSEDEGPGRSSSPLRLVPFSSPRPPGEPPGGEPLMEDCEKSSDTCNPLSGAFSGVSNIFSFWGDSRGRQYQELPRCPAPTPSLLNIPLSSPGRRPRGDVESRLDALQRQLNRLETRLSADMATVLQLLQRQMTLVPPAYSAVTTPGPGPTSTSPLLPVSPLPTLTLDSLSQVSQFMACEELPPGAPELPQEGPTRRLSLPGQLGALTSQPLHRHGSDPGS
Text: Experimental platform: Electrophysiological manual patch-clamp system
Cell line: Chinese hamster ovary (CHO) cell lines stably expressing hERG potassium ion channel
Experimental method: In Chinese Hamster Ovary (CHO) cells stably expressing hERG potassium channel, whole cell patch-clamp technique was used to record hERG potassium channel current at room temperature. The glass microelectrode was made of a glass electrode blank (BF150-86-10, Sutter) by a puller. The tip resistance after filling the liquid in the electrode was about 2-5 MΩ. The glass microelectrode can be connected to the patch-clamp amplifier by inserting the glass microelectrode into an amplifier probe. The clamping voltage and data recording were controlled and recorded by the pClamp 10 software through a computer. The sampling frequency was 10 kHz, and the filtering frequency was 2 kHz. After the whole cell records were obtained, the cells were clamped at -80 mV, and the step voltage that induced the hERG potassium current (I hERG) was depolarised from -80 mV to +20 mV for 2 s, then repolarised to -50 mV, and returned to -80 mV after 1 s. This voltage stimulation was given every 10 s, and the administration process was started after the hERG potassium current was confirmed to be stable (at least 1 minute). The compound was administered for at least 1 minute at each test concentration, and at least 2 cells (n ≥ 2) were tested at each concentration.
Data processing: Data analysis processing was carried out by using pClamp 10, GraphPad Prism 5 and Excel software.
Compound IC50 was calculated using GraphPad Prism 5 software by fitting according to the following equation: Y = Bottom + (Top−Bottom)/(1+10^(∧)((LogIC50−X)*HillSlope)) [formula] where X represents the Log value of the tested concentration of the test sample, Y represents the inhibition percentage at the corresponding concentration, and Bottom and Top represent the minimum and maximum inhibition percentage, respectively.

[2] = Pharmacokinetic test in mice; assay type: in vivo, ICR mice; conditions: i.g. (5 mg/kg); for AUC(0-t): mouse, plasma, po
Protocol: as §1, with “ICR mice” for “SD rats”, “mice” for “rats”, “mice.” for “rats.”
Experimental animals: Male ICR mice, 6 mice/compound, purchased from Chengdu Ddossy Experimental Animals Co., Ltd.
as §2, with “[…]” for “rats”, “6” for “3”
Sampling: Before and after the administration, 0.15 mL of blood was taken from the orbits under isoflurane anaesthesia, and placed in an EDTAK2 centrifuge tube. Centrifugation was carried out at 5000 rpm at 4°C for 10 min, and the plasma was collected.
The plasma collection time points for PO groups were 0, 5 min, 15 min, 30 min, 1 h, 2 h, 4 h, 7 h, 24 h, and 48 h.
The plasma collection time points for IV groups were 0, 5 min, 15 min, 30 min, 1 h, 2 h, 4 h, 7 h, 24 h, and 48 h.
Before analysis and detection, all samples were stored at -60°C. The samples were analysed quantitatively by LC-MS/MS. Table 7 Pharmacokinetic parameters of compounds of the present invention in plasma of mice

[3] = Vehicle 3: 5% DMSO+5% Solutol+90% (20% SBE-β-CD)
[4] = vehicle 5% DMSO+5% Solutol+90% (20% SBE-β-CD)
[5] = Vehicle 1: 5% DMSO+5% Solutol+30% PEG400+60% (20% SBE-CD)

Molecule `COc1cc(O[C@H]2C(C)(C)[C@H](NC(=O)c3ccc(N4CCC5(CC4)CC(N4CCN6c7cc(F)c(N8CCC(=O)NC8=O)cc7CC[C@@H]6C4)C5)cc3)C2(C)C)ccc1C#N` [Compound 79] has a DC50 (AR protein) of under 100 nM, an AUC(0-t) ([1]; male, SD, plasma, vehicle 5% DMSO+5% Solutol+10% PEG400+80% (20% SBE-β-CD)) of 6970 ng·h/mL and a GI50 (VCaP cells) of under 300 nM. For the same molecule, the IC50 (hERG potassium channel; human, CHO cells stably expressing hERG potassium channel) was over 40 µM.

Work on `CC1(C)[C@H](NC(=O)c2ccc(N3CCC(CN4CCN5c6cc(F)c(N7CCC(=O)NC7=O)cc6CC[C@@H]5C4)CC3)cc2)C(C)(C)[C@H]1Oc1ccc(C#N)c2ncccc12` [Compound 32] yielded a DC50 (AR protein) of under 100 nM and an AUC(0-t) [2, 3] of 30900 ± 6080 ng·h/mL.

For `COc1cc(O[C@H]2C(C)(C)[C@H](NC(=O)c3ccc(N4CCC(CN5CCN(c6ccc(C(=O)N[C@H]7CCC(=O)NC7=O)c(F)c6)CC5)CC4)cc3)C2(C)C)ccc1C#N` [Control compound, reference compound], the F [1, 4] was 26.9±3.2%, the AUC(0-t) ([1]; male, SD, plasma, vehicle 5% DMSO+5% Solutol+90% (20% SBE-β-CD)) was 2870 ± 338 ng·h/mL and the GI50 (VCaP cells) was over 2000 nM. For the same molecule, the F [2, 5] was 63.4±3.3% and the AUC(0-t) ([2]; male, ICR, Vehicle 1: 5% DMSO+5% Solutol+30% PEG400+60% (20% SBE-CD)) was 20700 ± 1080 ng·h/mL.

With `COc1cc(O[C@H]2C(C)(C)[C@H](NC(=O)c3ccc(N4CCC(CN5CCN6c7cc(F)c(N8CCC(=O)NC8=O)cc7CC[C@@H]6C5)CC4)nc3)C2(C)C)ccc1C#N` [Trifluoroacetate of compound 66] the GI50 (VCaP cells) was under 300 nM and the AUC(0-t) [2, 3] was 30400 ± 9310 ng·h/mL.

For `CC1(C)[C@H](NC(=O)c2ccc(N3CCC(CN4CCN5c6cc(F)c(C7CCC(=O)NC7=O)cc6CC[C@@H]5C4)CC3)cc2)C(C)(C)[C@H]1Oc1ccc(C#N)c2ncccc12` (some centres unmarked) [Compound 30], the DC50 (AR protein) was under 100 nM, the AUC(0-t) [2, 3] was 33000 ± 9330 ng·h/mL and the IC50 (hERG potassium channel; chinese hamster) was over 40 µM.

In the case of `COc1cc(O[C@H]2C(C)(C)[C@H](NC(=O)c3ccc(N4CCC(CN5CCN6c7cc(F)c(C8CCC(=O)NC8=O)cc7CC[C@@H]6C5)CC4)cc3)C2(C)C)ccc1C#N` (some centres unmarked) [Compound 2], the F ([1]; vehicle 5% DMSO+ 5% Solutol+30% PEG-400+60% (20% SBE-β-CD)) is reported as 61.4+9.1% and the AUC(0-t) ([1]; in vivo, vehicle 5% DMSO+ 5% Solutol+30% PEG-400+60% (20% SBE-β-CD)) is reported as 6010 ± 889 ng·h/mL.

`COc1cc(O[C@H]2C(C)(C)[C@H](NC(=O)c3ccc(N4CCC(CN5CCN6c7cc(F)c(C8CCC(=O)NC8=O)cc7CC[C@H]6C5)CC4)cc3)C2(C)C)ccc1C#N` (some centres unmarked) [Compound 1] gave an F [1, 4] of 46.5±8.6%, an AUC(0-t) ([1]; in vivo, vehicle 5% DMSO+5% Solutol+90% (20% SBE-β-CD)) of 5490 ± 1010 ng·h/mL and a GI50 (VCaP cells) of under 300 nM.

For `COc1cc(O[C@H]2C(C)(C)[C@H](NC(=O)c3ccc(N4CCC(CN5CCN6c7cc(F)c(C(=O)N[C@H]8CCC(=O)NC8=O)cc7CC[C@H]6C5)CC4)cc3)C2(C)C)ccc1C#N` [Compound 13], the DC50 (AR protein) was under 100 nM and the AUC(0-t) [2, 5] was 33500 ± 1680 ng·h/mL.
